# Reference: PubChem BioAssay (NCI)
# “And” between values parts separate entries of the source, which are not always exact repeats. Equal entries are not always repeated.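 Protocol summary: plate cells (96-well), add compound at 5 concentrations, incubate 48 h, interpolate endpoints linearly. At the GI50, growth is halved. TGI: total growth inhibition.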
# How the values were obtained:
# Test in all cases: NCI tumour cell line growth inhibition, 48 h
# SNB-78 CNS = test system: SNB-78 CNS
# LXFL 529 NSCLC = test system: LXFL 529 NSCLC
# DMS 273 small cell lung = test system: DMS 273 small cell lung
# HOP-18 NSCLC = test system: HOP-18 NSCLC
# DMS 114 small cell lung = test system: DMS 114 small cell lung
# KM20L2 colon = test system: KM20L2 colon
# XF 498 CNS = test system: XF 498 CNS
# DLD-1 colon = test system: DLD-1 colon
# RXF-631 renal = test system: RXF-631 renal
# P388 leukemia = test system: P388 leukemia
# SN12K1 renal = test system: SN12K1 renal
# P388/ADR leukemia = test system: P388/ADR leukemia
Structure (SMILES),TGI (SNB-78 CNS),TGI (LXFL 529 NSCLC),TGI (DMS 273 small cell lung),TGI (HOP-18 NSCLC),TGI (DMS 114 small cell lung),TGI (KM20L2 colon),TGI (XF 498 CNS),GI50 (DLD-1 colon),TGI (DLD-1 colon),GI50 (LXFL 529 NSCLC),GI50 (HOP-18 NSCLC),GI50 (KM20L2 colon),TGI (RXF-631 renal),TGI (P388 leukemia),TGI (SN12K1 renal),TGI (P388/ADR leukemia)
O=C(CSc1nnc(-c2ccc(N=Cc3ccc(Cl)cc3)cc2)o1)Nc1cccc([N+](=O)[O-])c1,> 100 µM,> 100 µM,> 100 µM,> 100 µM,> 100 µM,> 100 µM,,,,,,,,,,
NC(CS)C(=O)NCCNc1ccc(NCCNC(=O)C(N)CS)c2c1C(=O)c1c(O)ccc(O)c1C2=O (configuration not stated),,0.927 µM and 0.631 µM,,3.9 µM and 0.484 µM,,1.49 µM and 1.37 µM,0.463 µM,63.8 nM,1.03 µM and 0.762 µM,67.3 nM,30.7 nM,195 nM,,,,
O=C1C(=Cc2ccc([N+](=O)[O-])o2)C(=O)N(CCc2ccccc2)S(=O)(=O)N1CCc1ccccc1,94.9 µM,30.6 µM,> 100 µM,> 100 µM,,> 100 µM,34.9 µM,,34.1 µM,,,,,,,
CCOC(=O)C1=C(O)c2ccc(OC)cc2C(=O)C1=O,> 100 µM,,> 100 µM,66.5 µM,> 100 µM,> 100 µM,,,> 100 µM,,,,,,,
O=C1C(Cl)C(c2ccc([N+](=O)[O-])cc2)N1n1cnc2ccccc2c1=O (configuration not stated),88.1 µM,> 100 µM,> 100 µM,> 100 µM,> 100 µM,> 100 µM,> 100 µM,,> 100 µM,,,,,,,
O=C1NC(Cc2ccccc2)C(=O)N2CCCC12 (configuration not stated),> 100 µM,> 100 µM,> 100 µM,> 100 µM,> 100 µM,> 100 µM,> 100 µM,,> 100 µM,,,,,,,
N/C(=N/N=C/c1cccc(F)c1)NO,> 100 µM,> 100 µM,> 100 µM,> 100 µM,84.7 µM,> 100 µM,> 100 µM,,> 100 µM,,,,> 100 µM,,,
COc1ccc(N2C(=O)C3C=CC(n4[nH]c(=O)n(Cc5ccccc5)c4=O)CC3C2=O)cc1 (configuration not stated),> 100 µM,> 100 µM,> 100 µM,> 100 µM,> 100 µM,> 100 µM,> 100 µM,,> 100 µM,,,,,,,
CC(=O)Nc1ccc(C(=O)n2[nH]c(C)c(/C=C3\C(=O)C=Cc4ccccc43)c2=O)cc1,> 100 µM,,> 100 µM,> 100 µM,> 100 µM,,> 100 µM,,> 100 µM,,,,,,,
Cc1cc(=O)[nH]c(NNC(C#N)c2ccc(N(C)C)cc2)n1 (configuration not stated),> 100 µM,,> 100 µM,> 100 µM,> 100 µM,> 100 µM,,,> 100 µM,,,,,,,
CCCCc1c2c(nc3c1CCCC3=O)CCCC2,,> 100 µM,> 100 µM,,> 100 µM,> 100 µM,> 100 µM,,,,,,,,,
COCC1N=C(c2cc(OC)c(OC)c(OC)c2-c2cc3c(cc2[C@@H](C)O)OCO3)O[C@H]1c1ccccc1 (some centres not stated),> 87.4 µM,,> 100 µM,> 100 µM,,> 100 µM,,,> 100 µM,,,,,> 100 µM,> 100 µM,> 100 µM
COc1cc(CC(=O)c2cc3c(cc2-c2ccccc2)OCO3)cc(OC)c1OC,> 100 µM,> 100 µM,> 100 µM,> 100 µM,> 100 µM,> 100 µM,77.3 µM,,> 100 µM,,,,,,,
CC(C)OC(=O)c1cccnc1/C=N/O,> 100 µM,> 100 µM,> 100 µM,,> 100 µM,> 100 µM,> 100 µM,,> 100 µM,,,,,,,
Nc1ccn(CCCC(c2ccccc2)P(=O)(O)O)c(=O)n1 (configuration not stated),> 100 µM,> 100 µM,> 100 µM,> 100 µM,> 100 µM,> 100 µM,,,> 100 µM,,,,,,,
O=P(Nc1cccc(Cl)c1)(Oc1ccccc1)N(CCCl)CCCl (configuration not stated),43.8 µM,24.6 µM,27.3 µM,47.2 µM,26.1 µM,26.7 µM,,,30.5 µM,,,,,,,
C[C@]12CCC(=O)C=C1CC[C@@H]1C2CC[C@@]2(C)C1CC[C@@H]2OC(=O)C12OC1CCC2=O (some centres not stated),33.9 µM,28 µM,31.1 µM,31.7 µM,34.3 µM,34.3 µM,27.9 µM,,,,,,,,,
CN(C)CCNC(=O)c1cccc2[nH]c(-c3ccc(Cl)cc3)nc12,37.7 µM,,14.3 µM,61.1 µM,21.7 µM,18.6 µM,17.6 µM,,24.5 µM,,,,,14.5 µM,14.8 µM,18.4 µM
COC(=O)CC1NC(=O)C1C(C)(OC)OC (configuration not stated),,> 100 µM,> 100 µM,,> 100 µM,> 100 µM,> 100 µM,,> 100 µM,,,,> 100 µM,,,
COc1ccc(NC(=O)C2=CC(=O)c3ccc(O)cc3C2=O)c(OC)c1,> 100 µM,> 100 µM,,> 100 µM,> 100 µM,> 100 µM,> 100 µM,,> 100 µM,,,,> 100 µM,,,
O=C1NC2OC(CO)C(O)C(O)C2O1 (configuration not stated),> 100 µM,> 100 µM,> 100 µM,> 100 µM,> 100 µM,> 100 µM,,,> 100 µM,,,,,,,
NNC(=S)NN/C=C(\C=Nc1ccccc1)[N+](=O)[O-],,> 100 µM,,,> 100 µM,> 100 µM,> 100 µM,,> 100 µM,,,,> 100 µM,,,
COc1ccc(/C=C(\C2=NC(=O)CS2)c2nc3ccccc3[nH]2)cc1,> 100 µM,> 100 µM,> 100 µM,,> 100 µM,> 100 µM,81.5 µM,,> 100 µM,,,,,,,
